# Assay results reported in ChEMBL document CHEMBL1201862, “PubChem BioAssay data set” (2004).
#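 In this assay, cells in 96-well plates receive the compound at five concentrations for 48 hours. Endpoints are linearly interpolated between the surrounding concentrations. Here, GI50 denotes the concentration required for 50% inhibition of growth.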 The source made the active and inactive calls. No stated cut-off is given here; in the data, active = GI50 up to about 1.1 µM and inactive = higher.
# Tests used:
# Assay in all cases: NCI-60 cell line screen, 48 h
# 786-0 = test system: 786-0
# A498 = test system: A498
# A549 = test system: A549
# ACHN = test system: ACHN
# BT-549 = test system: BT-549
# CAKI-1 = test system: CAKI-1
# CCRF-CEM = test system: CCRF-CEM
# COLO 205 = test system: COLO 205
# DLD-1 = test system: DLD-1
# DMS-114 = test system: DMS-114
# DMS-273 = test system: DMS-273
# DU-145 = test system: DU-145
# EKVX = test system: EKVX
# HCC 2998 = test system: HCC 2998
# HCT-116 = test system: HCT-116
# HCT-15 = test system: HCT-15
# HL-60 = test system: HL-60
# HOP-18 = test system: HOP-18
# HOP-62 = test system: HOP-62
# HOP-92 = test system: HOP-92
# HT-29 = test system: HT-29
# Hs-578T = test system: Hs-578T
# IGROV-1 = test system: IGROV-1
# K562 = test system: K562
# KM-20L2 = test system: KM-20L2
# KM12 = test system: KM12
# LOX IMVI = test system: LOX IMVI
# LXFL 529 = test system: LXFL 529
# M14 = test system: M14
# M19-MEL = test system: M19-MEL
# MCF7 = test system: MCF7
# MDA-MB-231 = test system: MDA-MB-231
# MDA-MB-435 = test system: MDA-MB-435
# MDA-N = test system: MDA-N
# MOLT-4 = test system: MOLT-4
# Malme-3M = test system: Malme-3M
# NCI-H226 = test system: NCI-H226
# NCI-H23 = test system: NCI-H23
# NCI-H460 = test system: NCI-H460
# NCI-H522 = test system: NCI-H522
# NCI/ADR-RES = test system: NCI/ADR-RES
# OVCAR-3 = test system: OVCAR-3
# OVCAR-4 = test system: OVCAR-4
# OVCAR-5 = test system: OVCAR-5
# OVCAR-8 = test system: OVCAR-8
# PC-3 = test system: PC-3
# RPMI-8226 = test system: RPMI-8226
# RXF 393 = test system: RXF 393
# RXF 631 = test system: RXF 631
# SF-268 = test system: SF-268
# SF-295 = test system: SF-295
# SF-539 = test system: SF-539
# SK-MEL-28 = test system: SK-MEL-28
# SK-MEL-2 = test system: SK-MEL-2
# SK-MEL-5 = test system: SK-MEL-5
# SK-OV-3 = test system: SK-OV-3
# SN12C = test system: SN12C
# SNB-19 = test system: SNB-19
# SNB-75 = test system: SNB-75
# SNB-78 = test system: SNB-78
# SR = test system: SR
# SW-620 = test system: SW-620
# T47D = test system: T47D
# TK-10 = test system: TK-10
# U-251 = test system: U-251
# UACC-257 = test system: UACC-257
# UACC-62 = test system: UACC-62
# UO-31 = test system: UO-31
# XF498 = test system: XF498
structure (smiles),measurement,setting,value
COc1ccc(C(=O)c2cc(OC)c(OC)c(OC)c2)cc1,GI50,786-0,0.169 µM (active)
same,GI50,A498,0.0713 µM (active)
same,GI50,A549,0.106 µM (active)
same,GI50,ACHN,1.29 µM (inactive)
same,GI50,BT-549,0.923 µM (active)
same,GI50,CAKI-1,0.0738 µM (active)
same,GI50,CCRF-CEM,0.0879 µM (active)
same,GI50,COLO 205,0.0706 µM (active)
same,GI50,DLD-1,0.204 µM (active)
same,GI50,DMS-114,0.285 µM (active)
same,GI50,DMS-273,0.0863 µM (active)
same,GI50,DU-145,0.205 µM (active)
same,GI50,EKVX,0.484 µM (active)
same,GI50,HCC 2998,0.321 µM (active)
same,GI50,HCT-116,0.0703 µM (active)
same,GI50,HCT-15,0.0566 µM
same,GI50,HL-60,0.031 µM (active)
same,GI50,HOP-18,> 100 µM (inactive)
same,GI50,HOP-62,0.7 µM (active)
same,GI50,HOP-92,2.41 µM (inactive)
same,GI50,HT-29,0.0372 µM (active)
same,GI50,Hs-578T,0.111 µM (active)
same,GI50,IGROV-1,0.219 µM (active)
same,GI50,K562,0.0392 µM (active)
same,GI50,KM-20L2,0.0715 µM (active)
same,GI50,KM12,0.0481 µM (active)
same,GI50,LOX IMVI,0.147 µM (active)
same,GI50,LXFL 529,0.221 µM (active)
same,GI50,M14,0.0753 µM (active)
same,GI50,M19-MEL,0.893 µM (active)
same,GI50,MCF7,0.0991 µM (active)
same,GI50,MDA-MB-231,0.0881 µM (active)
same,GI50,MDA-MB-435,0.0197 µM (active)
same,GI50,MDA-N,0.016 µM (active)
same,GI50,MOLT-4,0.0715 µM (active)
same,GI50,Malme-3M,0.0586 µM (active)
same,GI50,NCI-H226,1.11 µM (active)
same,GI50,NCI-H23,0.324 µM (active)
same,GI50,NCI-H460,0.0735 µM (active)
same,GI50,NCI-H522,0.0715 µM (active)
same,GI50,NCI/ADR-RES,0.054 µM (active)
same,GI50,OVCAR-3,0.0769 µM (active)
same,GI50,OVCAR-4,28.6 µM (inactive)
same,GI50,OVCAR-5,5.98 µM (inactive)
same,GI50,OVCAR-8,0.382 µM (active)
same,GI50,PC-3,0.0775 µM (active)
same,GI50,RPMI-8226,0.169 µM (active)
same,GI50,RXF 393,0.331 µM (active)
same,GI50,RXF 631,0.184 µM (active)
same,GI50,SF-268,0.838 µM (active)
same,GI50,SF-295,0.0399 µM (active)
same,GI50,SF-539,0.152 µM (active)
same,GI50,SK-MEL-28,0.733 µM (active)
same,GI50,SK-MEL-2,0.342 µM (active)
same,GI50,SK-MEL-5,0.0702 µM (active)
same,GI50,SK-OV-3,1.14 µM (inactive)
same,GI50,SN12C,0.705 µM (active)
same,GI50,SNB-19,0.199 µM (active)
same,GI50,SNB-75,0.0726 µM (active)
same,GI50,SNB-78,0.194 µM (active)
same,GI50,SR,0.0581 µM (active)
same,GI50,SW-620,0.0556 µM (active)
same,GI50,T47D,27.5 µM (inactive)
same,GI50,TK-10,4.11 µM (inactive)
same,GI50,U-251,0.206 µM (active)
same,GI50,UACC-257,0.769 µM (active)
same,GI50,UACC-62,0.0501 µM (active)
same,GI50,UO-31,1 µM (active)
same,GI50,XF498,0.432 µM (active)
O=C(CCBr)N1CCN(C(=O)CCBr)CC1 [PIPOBROMAN],GI50,786-0,57.9 µM (inactive)
same,GI50,A498,80.7 µM (inactive)
same,GI50,A549,43.9 µM (inactive)
same,GI50,ACHN,29 µM (inactive)
same,GI50,BT-549,61.8 µM (inactive)
same,GI50,CAKI-1,47.9 µM (inactive)
same,GI50,CCRF-CEM,15.1 µM (inactive)
same,GI50,COLO 205,92.3 µM (inactive)
same,GI50,DLD-1,90.2 µM (inactive)
same,GI50,DMS-114,50.6 µM (inactive)
same,GI50,DMS-273,28.8 µM (inactive)
same,GI50,DU-145,64.6 µM (inactive)
same,GI50,EKVX,85.7 µM (inactive)
same,GI50,HCC 2998,69.3 µM (inactive)
same,GI50,HCT-116,71.3 µM (inactive)
same,GI50,HCT-15,83.8 µM
same,GI50,HL-60,13.7 µM (inactive)
same,GI50,HOP-18,121 µM (inactive)
same,GI50,HOP-62,60.3 µM (inactive)
same,GI50,HOP-92,126 µM (inactive)
same,GI50,HT-29,103 µM (inactive)
same,GI50,Hs-578T,190 µM (inactive)
same,GI50,IGROV-1,97.5 µM (inactive)
same,GI50,K562,131 µM (inactive)
same,GI50,KM-20L2,119 µM (inactive)
same,GI50,KM12,> 93.5 µM (inactive)
same,GI50,LOX IMVI,48.3 µM (inactive)
same,GI50,LXFL 529,71.6 µM (inactive)
same,GI50,M14,57.7 µM (inactive)
same,GI50,M19-MEL,86.9 µM (inactive)
same,GI50,MCF7,52.4 µM (inactive)
same,GI50,MDA-MB-231,113 µM (inactive)
same,GI50,MDA-MB-435,105 µM (inactive)
same,GI50,MDA-N,89.9 µM (inactive)
same,GI50,MOLT-4,13.4 µM (inactive)
same,GI50,Malme-3M,101 µM (inactive)
same,GI50,NCI-H226,84.9 µM (inactive)
same,GI50,NCI-H23,56.4 µM (inactive)
same,GI50,NCI-H460,11.9 µM (inactive)
same,GI50,NCI-H522,63.2 µM (inactive)
same,GI50,NCI/ADR-RES,81.8 µM (inactive)
same,GI50,OVCAR-3,96.6 µM (inactive)
same,GI50,OVCAR-4,86.9 µM (inactive)
same,GI50,OVCAR-5,103 µM (inactive)
same,GI50,OVCAR-8,86.3 µM (inactive)
same,GI50,PC-3,113 µM (inactive)
same,GI50,RPMI-8226,98.4 µM (inactive)
same,GI50,RXF 393,68.2 µM (inactive)
same,GI50,RXF 631,55.1 µM (inactive)
same,GI50,SF-268,39.3 µM (inactive)
same,GI50,SF-295,57.3 µM (inactive)
same,GI50,SF-539,62.5 µM (inactive)
same,GI50,SK-MEL-28,99.8 µM (inactive)
same,GI50,SK-MEL-2,107 µM (inactive)
same,GI50,SK-MEL-5,64.1 µM (inactive)
same,GI50,SK-OV-3,105 µM (inactive)
same,GI50,SN12C,42.6 µM (inactive)
same,GI50,SNB-19,80.2 µM (inactive)
same,GI50,SNB-75,71.4 µM (inactive)
same,GI50,SNB-78,114 µM (inactive)
same,GI50,SR,8.04 µM (inactive)
same,GI50,SW-620,89.9 µM (inactive)
same,GI50,T47D,106 µM (inactive)
same,GI50,TK-10,244 µM (inactive)
same,GI50,U-251,55 µM (inactive)
same,GI50,UACC-257,91 µM (inactive)
same,GI50,UACC-62,18 µM (inactive)
same,GI50,UO-31,120 µM (inactive)
same,GI50,XF498,66.7 µM (inactive)
